We go through five compounds from patent US9340590B2 (priority 2011, dated 2016).

SMILES strings stand for the structures. Where two headings read alike, the source gives them in different places. Positions of bridges follow the written chain, without caps; N, C: chain ends. Non-standard residues stand in square brackets, D forms with d. Residues, ends and D or L forms follow the SMILES beside them. 1Nal = N[C@@H](Cc1cccc2ccccc12)C(=O)O A value given as a limit tells only on which side of the number the result lay.

Common to all, as to assay: cell-based
The target in assay [1] is hNav1.7 (Homo sapiens, UniProt Q15858). Format: cell-based.
Chain of hNav1.7 (Q15858 whole entry, looked up): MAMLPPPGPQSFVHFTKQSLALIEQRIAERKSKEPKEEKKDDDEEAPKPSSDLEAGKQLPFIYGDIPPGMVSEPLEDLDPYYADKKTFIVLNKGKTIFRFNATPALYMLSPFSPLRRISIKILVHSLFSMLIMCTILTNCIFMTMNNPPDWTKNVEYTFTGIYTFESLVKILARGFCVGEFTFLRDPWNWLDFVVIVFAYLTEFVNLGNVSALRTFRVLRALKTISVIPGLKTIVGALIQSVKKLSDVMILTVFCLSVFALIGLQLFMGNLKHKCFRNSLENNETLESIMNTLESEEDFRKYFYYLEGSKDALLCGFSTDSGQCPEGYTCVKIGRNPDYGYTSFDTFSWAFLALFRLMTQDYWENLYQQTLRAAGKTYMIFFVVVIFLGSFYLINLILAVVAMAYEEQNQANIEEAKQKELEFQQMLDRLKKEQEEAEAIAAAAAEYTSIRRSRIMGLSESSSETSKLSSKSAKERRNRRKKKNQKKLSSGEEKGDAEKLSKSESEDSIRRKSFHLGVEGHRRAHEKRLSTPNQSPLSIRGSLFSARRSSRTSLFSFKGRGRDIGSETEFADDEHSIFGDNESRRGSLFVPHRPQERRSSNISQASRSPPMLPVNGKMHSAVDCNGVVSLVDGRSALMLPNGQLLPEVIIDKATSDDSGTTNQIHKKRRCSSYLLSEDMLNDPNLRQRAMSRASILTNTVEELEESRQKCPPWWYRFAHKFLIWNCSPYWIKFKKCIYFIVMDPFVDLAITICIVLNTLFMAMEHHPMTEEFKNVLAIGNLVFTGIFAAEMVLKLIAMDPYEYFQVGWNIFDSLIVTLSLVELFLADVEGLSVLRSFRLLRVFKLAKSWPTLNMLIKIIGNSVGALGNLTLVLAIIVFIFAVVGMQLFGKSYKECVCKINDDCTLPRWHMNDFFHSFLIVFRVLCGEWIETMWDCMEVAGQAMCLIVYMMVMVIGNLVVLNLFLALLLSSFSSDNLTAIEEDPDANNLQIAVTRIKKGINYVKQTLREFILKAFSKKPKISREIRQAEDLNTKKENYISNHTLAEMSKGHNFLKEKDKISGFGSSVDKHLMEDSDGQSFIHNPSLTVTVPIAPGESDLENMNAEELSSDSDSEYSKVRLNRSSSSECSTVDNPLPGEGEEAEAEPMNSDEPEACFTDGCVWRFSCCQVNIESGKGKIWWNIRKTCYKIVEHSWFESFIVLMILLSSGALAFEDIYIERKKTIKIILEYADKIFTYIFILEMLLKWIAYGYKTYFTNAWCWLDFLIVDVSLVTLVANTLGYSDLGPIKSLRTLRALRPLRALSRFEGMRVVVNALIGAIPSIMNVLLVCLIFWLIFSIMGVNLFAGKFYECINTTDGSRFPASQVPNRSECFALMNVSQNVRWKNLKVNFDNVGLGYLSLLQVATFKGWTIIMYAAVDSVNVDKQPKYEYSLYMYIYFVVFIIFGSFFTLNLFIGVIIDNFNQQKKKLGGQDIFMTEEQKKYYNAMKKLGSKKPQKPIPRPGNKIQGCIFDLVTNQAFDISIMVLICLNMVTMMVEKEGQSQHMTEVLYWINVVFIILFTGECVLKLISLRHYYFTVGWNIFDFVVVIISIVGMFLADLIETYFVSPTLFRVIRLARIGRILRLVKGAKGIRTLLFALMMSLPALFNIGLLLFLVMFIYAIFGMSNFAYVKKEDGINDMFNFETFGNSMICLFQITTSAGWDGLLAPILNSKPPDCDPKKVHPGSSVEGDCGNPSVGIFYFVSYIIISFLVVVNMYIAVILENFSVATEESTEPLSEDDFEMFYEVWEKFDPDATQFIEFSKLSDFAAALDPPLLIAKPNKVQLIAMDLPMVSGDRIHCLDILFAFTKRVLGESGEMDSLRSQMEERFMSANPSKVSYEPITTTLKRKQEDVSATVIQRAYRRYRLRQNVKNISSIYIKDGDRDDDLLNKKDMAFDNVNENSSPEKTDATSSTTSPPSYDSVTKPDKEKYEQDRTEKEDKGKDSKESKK
Assay [2] has as its target hNav1.5 (Homo sapiens, UniProt Q14524).
Assay [3] deals with hNav1.3 (Homo sapiens, UniProt Q9NY46). The conditions noted are these: IonWorks Quattro, read-out: IWQ Use Nav1.3.
Where [4] appears, read: IonWorks Quattro, Use, read-out: IWQ Use Nav1.7.
Setting [5] is: IonWorks Quattro, Use, read-out: IWQ Use Nav1.5.

Chain of hNav1.5 (Q14524 whole entry, looked up): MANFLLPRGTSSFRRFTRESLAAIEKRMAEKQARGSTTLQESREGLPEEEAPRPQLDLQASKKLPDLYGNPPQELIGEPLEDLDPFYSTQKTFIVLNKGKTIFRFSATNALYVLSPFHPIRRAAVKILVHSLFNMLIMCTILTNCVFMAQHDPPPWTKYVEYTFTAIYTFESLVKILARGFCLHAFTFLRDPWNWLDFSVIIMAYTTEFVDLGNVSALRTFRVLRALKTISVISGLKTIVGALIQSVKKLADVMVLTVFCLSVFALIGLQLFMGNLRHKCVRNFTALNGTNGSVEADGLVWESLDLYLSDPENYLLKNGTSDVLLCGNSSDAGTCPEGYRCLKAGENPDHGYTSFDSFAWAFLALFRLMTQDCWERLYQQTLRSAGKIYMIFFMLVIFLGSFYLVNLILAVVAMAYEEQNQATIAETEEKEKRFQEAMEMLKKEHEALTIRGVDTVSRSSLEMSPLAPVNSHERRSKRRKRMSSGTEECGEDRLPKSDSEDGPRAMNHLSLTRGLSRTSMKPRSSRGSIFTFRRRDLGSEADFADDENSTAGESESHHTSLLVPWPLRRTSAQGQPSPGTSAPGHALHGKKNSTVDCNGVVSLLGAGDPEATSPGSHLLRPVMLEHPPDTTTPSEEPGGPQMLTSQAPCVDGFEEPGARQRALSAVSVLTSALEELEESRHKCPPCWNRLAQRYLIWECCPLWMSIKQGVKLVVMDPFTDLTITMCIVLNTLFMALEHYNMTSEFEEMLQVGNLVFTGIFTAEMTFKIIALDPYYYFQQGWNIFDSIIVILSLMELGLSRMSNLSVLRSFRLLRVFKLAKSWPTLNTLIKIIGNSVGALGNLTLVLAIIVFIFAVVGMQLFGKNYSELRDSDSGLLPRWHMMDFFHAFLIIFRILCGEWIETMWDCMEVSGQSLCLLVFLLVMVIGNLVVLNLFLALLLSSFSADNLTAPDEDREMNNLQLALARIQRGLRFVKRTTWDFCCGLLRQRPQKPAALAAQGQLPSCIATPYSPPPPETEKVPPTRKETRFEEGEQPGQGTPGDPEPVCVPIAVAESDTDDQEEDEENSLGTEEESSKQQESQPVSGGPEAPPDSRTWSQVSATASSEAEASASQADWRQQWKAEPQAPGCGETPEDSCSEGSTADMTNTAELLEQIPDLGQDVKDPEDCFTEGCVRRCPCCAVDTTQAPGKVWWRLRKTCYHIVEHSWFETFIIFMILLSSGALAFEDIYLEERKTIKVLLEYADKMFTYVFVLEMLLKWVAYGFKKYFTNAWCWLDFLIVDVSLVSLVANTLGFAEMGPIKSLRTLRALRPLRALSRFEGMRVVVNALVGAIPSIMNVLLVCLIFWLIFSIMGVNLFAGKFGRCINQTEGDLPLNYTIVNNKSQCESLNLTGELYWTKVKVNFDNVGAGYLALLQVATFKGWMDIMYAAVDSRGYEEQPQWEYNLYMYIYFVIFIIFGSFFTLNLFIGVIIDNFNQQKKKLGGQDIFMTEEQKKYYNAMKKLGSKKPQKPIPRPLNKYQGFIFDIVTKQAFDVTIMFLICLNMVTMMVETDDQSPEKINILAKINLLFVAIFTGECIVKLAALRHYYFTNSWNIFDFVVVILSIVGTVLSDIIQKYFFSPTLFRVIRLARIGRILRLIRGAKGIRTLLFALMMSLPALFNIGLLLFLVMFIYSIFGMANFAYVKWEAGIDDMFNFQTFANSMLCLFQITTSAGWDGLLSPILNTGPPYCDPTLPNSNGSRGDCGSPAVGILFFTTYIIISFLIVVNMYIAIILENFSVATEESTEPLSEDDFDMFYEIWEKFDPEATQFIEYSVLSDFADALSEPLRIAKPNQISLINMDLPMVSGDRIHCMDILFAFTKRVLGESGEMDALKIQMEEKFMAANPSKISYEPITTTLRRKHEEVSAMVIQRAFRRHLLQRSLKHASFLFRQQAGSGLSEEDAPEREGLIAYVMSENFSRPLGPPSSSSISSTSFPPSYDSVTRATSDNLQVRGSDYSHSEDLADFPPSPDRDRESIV

Take `CC[C@H](C)[C@@H]1NC(=O)[C@@H]2CSSC[C@@H]3NC(=O)[C@H](Cc4c[nH]c5ccccc45)NC(=O)[C@H](CC(C)C)NC(=O)[C@H](CC(N)=O)NC(=O)[C@@H]4CCCN4C(=O)[C@H](CCCNC(=N)N)NC(=O)[C@H](CSSC[C@H](NC(=O)[C@@H](N)CC(=O)O)C(=O)N[C@@H](CC(C)C)C(=O)NCC(=O)N[C@@H](Cc4ccccc4)C(=O)N[C@@H](CCSC)C(=O)N[C@@H](CCCNC(=N)N)C(=O)N[C@@H](CCCCN)C(=O)N2)NC(=O)[C@H](CSSC[C@@H](C(=O)N[C@@H](CCCCN)C(=O)N[C@@H](Cc2ccc(O)cc2)C(=O)N[C@H](C(=O)N[C@@H](Cc2ccccc2)C(N)=O)C(C)C)NC(=O)[C@H](Cc2c[nH]c4ccccc24)NC(=O)[C@H](CCCCN)NC(=O)[C@H](Cc2cnc[nH]2)NC(=O)[C@H]([C@@H](C)O)NC(=O)[C@H](CCCNC(=N)N)NC(=O)[C@H](CO)NC3=O)NC(=O)[C@H](CCCCN)NC(=O)[C@H](CC(=O)O)NC(=O)[C@H](CC(N)=O)NC(=O)[C@H](CC(=O)O)NC(=O)[C@@H]2CCCN2C1=O` [compound 177] (H-DCLGFMRKCIPDNDKCCRPNLWCSRTHKWCKYVF-NH2; disulfide 2-17, 9-23, 16-30): the IC50 turned out to be 30 nM in assay [1], 8.02 µM in assay [2] (IWQ Use Nav1.5 (μM)) and 60 nM in assay [3] (Use).

Turning to `CC[C@H](C)[C@@H]1NC(=O)[C@@H]2CSSC[C@@H]3NC(=O)[C@H](C(C)C)NC(=O)[C@H](CC(C)C)NC(=O)[C@H](CC(N)=O)NC(=O)[C@@H]4CCCN4C(=O)[C@H](CCCNC(=N)N)NC(=O)[C@H](CSSC[C@H](NC(=O)[C@@H](N)CC(=O)O)C(=O)N[C@@H](CC(C)C)C(=O)NCC(=O)N[C@@H](Cc4ccccc4)C(=O)N[C@@H](CCSC)C(=O)N[C@@H](CCCNC(=N)N)C(=O)N[C@@H](CCCCN)C(=O)N2)NC(=O)[C@H](CSSC[C@@H](C(=O)N[C@@H](CCCCN)C(=O)N[C@@H](Cc2ccc(O)cc2)C(=O)N[C@H](C(=O)N[C@@H](Cc2c[nH]c4ccccc24)C(N)=O)C(C)C)NC(=O)[C@H](Cc2c[nH]c4ccccc24)NC(=O)[C@H](CCCCN)NC(=O)[C@H](Cc2c[nH]cn2)NC(=O)[C@H]([C@@H](C)O)NC(=O)[C@H](CCCNC(=N)N)NC(=O)[C@H](CO)NC3=O)NC(=O)[C@H](CCCCN)NC(=O)[C@H](CC(=O)O)NC(=O)[C@H](CC(N)=O)NC(=O)[C@H](CC(=O)O)NC(=O)[C@@H]2CCCN2C1=O` [compound 86] (H-DCLGFMRKCIPDNDKCCRPNLVCSRTHKWCKYVW-NH2; disulfide 2-17, 9-23, 16-30), the IC50 in assay [1] (IonWorks Quattro, use-dependent, […], read-out: IWQ Use Nav1.7) stood at 260 nM; in assay [2] (IonWorks Quattro, use-dependent, […], read-out: IWQ Use Nav1.5), 10 µM; in assay [3] (use-dependent, […]) it was 180 nM.

Take `CC[C@H](C)[C@@H]1NC(=O)[C@@H]2CSSC[C@@H]3NC(=O)[C@H](C(C)C)NC(=O)[C@H](CC(C)C)NC(=O)[C@H](CC(N)=O)NC(=O)[C@@H]4CCCN4C(=O)[C@H](CCCNC(=N)N)NC(=O)[C@H](CSSC[C@H](NC(=O)[C@@H](N)CC(=O)O)C(=O)N[C@@H](CC(C)C)C(=O)NCC(=O)N[C@@H](Cc4ccccc4)C(=O)N[C@@H](CCSC)C(=O)N[C@@H](CCCNC(=N)N)C(=O)N[C@@H](CCCCN)C(=O)N2)NC(=O)[C@H](CSSC[C@@H](C(=O)N[C@@H](CCCCN)C(=O)N[C@@H](Cc2ccc(O)cc2)C(=O)N[C@H](C(=O)N[C@@H](Cc2ccccc2)C(N)=O)C(C)C)NC(=O)[C@H](Cc2c[nH]c4ccccc24)NC(=O)[C@H](CCCCN)NC(=O)[C@H](Cc2c[nH]cn2)NC(=O)[C@H]([C@@H](C)O)NC(=O)[C@H](CCCNC(=N)N)NC(=O)[C@H](CO)NC3=O)NC(=O)[C@H](CCCCN)NC(=O)[C@H](CC(=O)O)NC(=O)[C@H](CC(N)=O)NC(=O)[C@H](Cc2cccc3ccccc23)NC(=O)[C@@H]2CCCN2C1=O` [compound 162] (H-DCLGFMRKCIP[1Nal]NDKCCRPNLVCSRTHKWCKYVF-NH2; disulfide 2-17, 9-23, 16-30): the IC50 turned out to be 60 nM in assay [1] (setting [4]), 9.88 µM in assay [2] (setting [5]) and 40 nM in assay [3] (Use).

Regarding `CC[C@H](C)[C@@H]1NC(=O)[C@@H]2CSSC[C@@H]3NC(=O)[C@H](C(C)C)NC(=O)[C@H](CC(C)C)NC(=O)[C@H](CC(N)=O)NC(=O)[C@@H]4CCCN4C(=O)[C@H](CCCNC(=N)N)NC(=O)[C@H](CSSC[C@H](NC(=O)[C@@H](N)CC(=O)O)C(=O)N[C@@H](CC(C)C)C(=O)NCC(=O)N[C@@H](C(C)(C)C)C(=O)N[C@@H](CCSC)C(=O)N[C@@H](CCCNC(=N)N)C(=O)N[C@@H](CCCCN)C(=O)N2)NC(=O)[C@H](CSSC[C@@H](C(=O)N[C@@H](CCCCN)C(=O)N[C@@H](Cc2ccc(O)cc2)C(=O)N[C@H](C(=O)N[C@@H](Cc2ccccc2)C(N)=O)C(C)C)NC(=O)[C@H](Cc2c[nH]c4ccccc24)NC(=O)[C@H](CCCCN)NC(=O)[C@H](Cc2cnc[nH]2)NC(=O)[C@H]([C@@H](C)O)NC(=O)[C@H](CCCNC(=N)N)NC(=O)[C@H](CO)NC3=O)NC(=O)[C@H](CCCCN)NC(=O)[C@H](CC(=O)O)NC(=O)[C@H](CC(N)=O)NC(=O)[C@H](CC(=O)O)NC(=O)[C@@H]2CCCN2C1=O` [compound 678], the IC50 in assay [1] (IonWorks Quattro, use-dependent protocol, hNav1.7, read-out: IWQ Use Nav1.7) was 700 nM; in assay [2] (IWQ Use Nav1.5), over 5 µM; in assay [3] (use-dependent protocol, hNav1.3), 1360 nM.

For the compound `CC[C@H](C)[C@@H]1NC(=O)[C@@H]2CCCN2C(=O)[C@H]([C@@H](C)CC)NC(=O)[C@@H]2CSSC[C@@H]3NC(=O)[C@H](C(C)C)NC(=O)[C@H](CC(C)C)NC(=O)[C@H](CC(N)=O)NC(=O)[C@@H]4CCCN4C(=O)[C@H](CCCNC(=N)N)NC(=O)[C@H](CSSC[C@H](NC(=O)[C@@H](N)CC(=O)O)C(=O)N[C@@H](CC(C)C)C(=O)NCC(=O)N[C@@H](Cc4ccccc4)C(=O)N[C@@H](CCSC)C(=O)N[C@@H](CCCNC(=N)N)C(=O)N[C@@H](CCCCN)C(=O)N2)NC(=O)[C@H](CSSC[C@@H](C(=O)N[C@@H](CCCCN)C(=O)N[C@@H](Cc2ccc(O)cc2)C(=O)N[C@H](C(=O)N[C@@H](Cc2ccccc2)C(N)=O)C(C)C)NC(=O)[C@H](Cc2c[nH]c4ccccc24)NC(=O)[C@H](CCCCN)NC(=O)[C@H](Cc2c[nH]cn2)NC(=O)[C@H]([C@@H](C)O)NC(=O)[C@H](CCCNC(=N)N)NC(=O)[C@H](CO)NC3=O)NC(=O)[C@H](CCCCN)NC(=O)[C@H](CC(=O)O)NC(=O)[C@H](CC(N)=O)NC1=O` [compound 195] (H-DCLGFMRKCIPINDKCCRPNLVCSRTHKWCKYVF-NH2; disulfide 2-17, 9-23, 16-30), the figures for the IC50 in assay [1] (setting [4]), in assay [2] (setting [5]) and in assay [3] (Use) were 662 nM, 18.3 µM and 607 nM, respectively.
